{"source": "patent US20080003244A1", "about": "“Inflammation and Oxidative Stress Reducing Compostion for Topical or Oral Administration” (priority 2006, published 2008)", "system": "A549 human lung epithelial cells", "experiment": "H2O2 oxidative stress protection, live cell count (trypan blue dye exclusion)", "assay_type": "cell-based", "details": "for Live cell Number: 4 hours, A549", "experimental": "A549 human lung epithelial cells were seeded and treated with 2.5 mM H202 with or without lipid for 4 hours. Cells were washed and trypsinized and live cells were counted. Test Sample Composition—The extract product titled LP 0817, example 1, was mixed with water at a 30% concentration yielding a compostion of Lipid Extract 23%, Lipoic Acid 7%, Water 70%. Lipid extract (produced by alcohol extraction process cited in example 1 without lipoic acid component)—23% lipids/77% water and lipoic acid at 7% concentration tested separately. 210 mg lipoic acid was dissolved with 2.8 ml. DMSO. (93% DMSO and 7% Lipoic Acid.) This is 100% solution. This working solution was diluted to 5%, 2%, 1% to use for hydrogen peroxide study. A549 human lung epithelial cells (1.5×10^5/well in 6 well dish) were seeded and treated with 2.5 mM H202 with or without lipid for 4 hours. Cells were washed and trypsinized and live cells (trypan blue dye exclusion assay) were counted. Cell number is represented as 10^4.", "note": "“And” between values parts separate entries of the source, which are not always exact repeats. Equal values may be shown once."}
{"smiles": "O=C(O)CCCCC1CCSS1", "note": "(stereo not shown) [Lipoic Acid 7%, lipoic acid]", "values": [{"measurement": "Live cell Number", "setting": "7% lipoic acid in DMSO working solution diluted to 1% + H2O2 (2.5 mM)", "value": "13 10^4 and 14 10^4"}, {"measurement": "Live cell Number", "setting": "7% lipoic acid in DMSO working solution diluted to 2% + H2O2 (2.5 mM)", "value": "14 10^4"}, {"measurement": "Live cell Number", "setting": "7% lipoic acid in DMSO working solution diluted to 5% + H2O2 (2.5 mM)", "value": "10 10^4 and 12 10^4"}, {"measurement": "Protection of cells from H2O2 treatment/damage", "setting": "A549, 2.5 mM H2O2, 4 hours", "value": "Neither Lipid extract nor Lipoic acid protected the cells from H202 damage"}]}
